Source: ChEMBL document CHEMBL5154810, “Development of Potent Immune Modulators Targeting Stimulator of Interferon Genes Receptor” (J Med Chem, 2022)
Activity calls are given as the source filed them. The rule behind the calls is not given here.

How the values were obtained:
[1] = molecular target: Voltage-gated inwardly rectifying potassium channel KCNH2 (Homo sapiens, UniProt Q12809); experiment: Inhibition of hERG by patch clamp assay; format: toxicity
CT26 = experiment: Antitumor activity against CT26 cells injected in BALB/c syngenic mouse model assessed as tumor growth inhibition at 1.5 mg/kg, iv measured after 17 days; format: functional; settings: CT26, 408 h, time 17 day, read-out: TGI
[2] = molecular target: T1, Stimulator of interferon genes protein (Mus musculus) (UniProt Q3TBT3); experiment: Activation of STING mediated immune response in mouse RAW264.7 cells assessed as induction of IP-10 secretion measured after 24 hrs by ELISA; format: cell-based; settings: filed as activator, dose 0.32-5000 nM, DDE = dose-dependent effect
T1 sequence (whole entry): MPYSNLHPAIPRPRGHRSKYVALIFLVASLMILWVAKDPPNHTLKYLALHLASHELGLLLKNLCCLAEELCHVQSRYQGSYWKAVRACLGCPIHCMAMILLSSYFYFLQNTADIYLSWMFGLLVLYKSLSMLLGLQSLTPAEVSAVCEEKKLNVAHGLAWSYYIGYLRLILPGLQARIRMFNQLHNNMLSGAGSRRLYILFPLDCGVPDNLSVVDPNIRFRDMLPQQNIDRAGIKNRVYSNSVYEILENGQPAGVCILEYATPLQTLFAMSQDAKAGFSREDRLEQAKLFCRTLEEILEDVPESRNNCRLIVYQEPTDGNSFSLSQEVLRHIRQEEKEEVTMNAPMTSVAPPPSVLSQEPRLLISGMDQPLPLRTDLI

[3] = molecular target: T2, Stimulator of interferon genes protein (Homo sapiens, UniProt Q86WV6); experiment: Activation of STING dependent immune response in wild type human THP1-Dual cells assessed as induction of IFN-beta secretion at 1.28 to 3.2 nM measured after 24 hrs by ELISA; format: cell-based; settings: filed as activator, dose 1.28-3.2 nM
[4] = molecular target: T2, Stimulator of interferon genes protein; experiment: Activation of STING pathway in human THP1-cells assessed as increase in STAT1 phosphorylation at 2 nM incubated for 6 hrs by Western blotting analysis; format: cell-based; settings: THP-1, filed as activator
THP-1 [5] = experiment: Upregulation of IRF7 in human THP-1 cells at 100 nM measured after 6 to 18 hrs by RT-PCR analysis; format: functional, cell-based; settings: time 6-18 hrs
[6] = molecular target: T2, Stimulator of interferon genes protein; experiment: Activation of STING pathway in human THP-1 cells assessed as increase in TBK1 phosphorylation at 2 nM incubated for 6 hrs by Western blotting analysis; format: cell-based; settings: filed as activator
THP-1 [7] = experiment: Upregulation of IFIT3 in human THP-1 cells at 100 nM measured after 6 to 18 hrs by RT-PCR analysis; format: functional, cell-based; settings: time 6-18 hrs
[8] = molecular target: Nuclear factor NF-kappa-B complex (Homo sapiens) (UniProt Q00653+P19838+Q04206); experiment: Activation of NF-kappaB mediated pro-inflammatory effector proteins in human THP-1 cells at 2 to 10 nM incubated for 4 hrs by western blot analysis; format: cell-based; settings: filed as activator, dose 2-10 nM
THP-1 [9] = experiment: Upregulation of CXCL10 in human THP-1 cells at 100 nM measured after 6 to 18 hrs by RT-PCR analysis; format: functional, cell-based; settings: time 6-18 hrs
Mus musculus [10] = experiment: Upregulation of IL-6 in BALB/c mouse serum at 1.5 mg/kg, iv measured after 4 hrs by ELISA; format: functional, organism-based
Cytochrome P450 2C9 = Cytochrome P450 2C9 (Homo sapiens, UniProt P11712); experiment: Inhibition of CYP2C9 in human liver microsomes tolbutamide as cocktail probe substrate preincubated for 5 mins followed by NADPH addition and measured after 30 mins by HPLC-MS/MS analysis; format: ADME, Microsome
[11] = AUClast in BALB/c mouse at 3 mg/kg, iv by LC-MS/MS analysis; format: ADME, organism-based; set-up: time 0 - last, dose 3 mg/kg, route iv; settings: in vivo
Mus musculus [12] = experiment: Upregulation of IFN-beta in BALB/c mouse serum at 1.5 mg/kg, iv measured after 4 hrs by ELISA; format: functional, organism-based
[13] = molecular target: T1, Stimulator of interferon genes protein (Mus musculus); experiment: Activation of STING mediated immune response in mouse RAW264.7 cells assessed as induction of IFNbeta secretion measured after 24 hrs by ELISA; format: cell-based; settings: filed as activator, dose 0.32-5000 nM, DDE = dose-dependent effect
[14] = Volume of distribution at steady state in BALB/c mouse at 3 mg/kg, iv by LC-MS/MS analysis; format: ADME, organism-based; settings: in vivo, read-out: Vdss
THP-1 [15] = experiment: Upregulation of IFNB in human THP-1 cells at 100 nM measured after 6 hrs by RT-PCR analysis; format: functional, cell-based
[16] = molecular target: T2, Stimulator of interferon genes protein; settings: THP1-Dual, filed as activator, dose 50.0 µM, time 24.0 hrs
THP-1 [17] = experiment: […] of IFNB in human THP-1 cells at 100 nM measured after 18 hrs by RT-PCR analysis; format: functional, cell-based
[18] = molecular target: T1, Stimulator of interferon genes protein (Mus musculus); experiment: Binding affinity to STING in mouse RAW264.7 assessed as thermal stabilization at 48 to 55 degC at 100 nM incubated for 4 hrs by western blotting based CETSA assay; format: cell-based; settings: filed as activator
[19] = molecular target: T2, Stimulator of interferon genes protein; experiment: Binding affinity to recombinant human His-tagged STING by measuring fluorescent signals in the presence of d2 labelled STING wild type ligand by HTRF based microplate reader analysis
[20] = Stability in mouse plasma assessed as parent compound remaining at 5 uM measured after 4 hrs by HPLC-MS/MS analysis; format: ADME, cell-free; settings: read-out: Stability

T2 sequence (Q86WV6 whole entry): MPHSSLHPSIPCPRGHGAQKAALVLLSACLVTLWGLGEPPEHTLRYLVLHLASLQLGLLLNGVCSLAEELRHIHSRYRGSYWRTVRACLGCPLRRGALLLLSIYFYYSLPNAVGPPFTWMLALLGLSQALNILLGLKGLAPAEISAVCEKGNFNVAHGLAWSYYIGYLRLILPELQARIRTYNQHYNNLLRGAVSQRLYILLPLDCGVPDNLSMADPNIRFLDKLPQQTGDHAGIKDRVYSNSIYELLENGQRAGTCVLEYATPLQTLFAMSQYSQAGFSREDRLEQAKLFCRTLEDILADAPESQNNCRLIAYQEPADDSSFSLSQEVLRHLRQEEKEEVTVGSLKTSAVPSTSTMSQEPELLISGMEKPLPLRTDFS
Nuclear factor NF-kappa-B complex (Homo sapiens), sequence (P19838 whole entry, looked up): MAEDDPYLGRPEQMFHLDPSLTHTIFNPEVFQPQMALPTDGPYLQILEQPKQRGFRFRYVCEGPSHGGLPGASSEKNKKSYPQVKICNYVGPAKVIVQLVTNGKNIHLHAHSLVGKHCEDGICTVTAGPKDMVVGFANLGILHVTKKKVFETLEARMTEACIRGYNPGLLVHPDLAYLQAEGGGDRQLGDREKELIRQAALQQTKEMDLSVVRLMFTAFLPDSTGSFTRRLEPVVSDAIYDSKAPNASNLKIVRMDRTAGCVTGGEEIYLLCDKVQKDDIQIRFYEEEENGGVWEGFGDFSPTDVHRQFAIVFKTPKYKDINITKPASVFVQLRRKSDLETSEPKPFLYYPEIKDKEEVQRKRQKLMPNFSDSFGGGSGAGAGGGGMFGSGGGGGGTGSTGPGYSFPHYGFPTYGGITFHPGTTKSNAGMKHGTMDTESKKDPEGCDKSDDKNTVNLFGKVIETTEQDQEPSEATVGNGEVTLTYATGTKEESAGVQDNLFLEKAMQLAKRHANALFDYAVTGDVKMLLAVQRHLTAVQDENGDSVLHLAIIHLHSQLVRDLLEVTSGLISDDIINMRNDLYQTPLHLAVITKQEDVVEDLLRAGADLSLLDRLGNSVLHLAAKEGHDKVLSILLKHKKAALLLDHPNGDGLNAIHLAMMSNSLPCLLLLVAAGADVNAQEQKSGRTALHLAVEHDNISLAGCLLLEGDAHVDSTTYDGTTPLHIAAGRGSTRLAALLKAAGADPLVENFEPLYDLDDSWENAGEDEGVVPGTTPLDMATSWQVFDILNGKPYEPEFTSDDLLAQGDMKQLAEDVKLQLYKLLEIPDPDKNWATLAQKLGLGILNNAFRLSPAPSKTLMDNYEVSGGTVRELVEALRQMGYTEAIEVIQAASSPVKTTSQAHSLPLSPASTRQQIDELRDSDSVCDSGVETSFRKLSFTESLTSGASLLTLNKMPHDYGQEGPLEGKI
Nuclear factor NF-kappa-B complex (Homo sapiens), sequence (Q00653 whole entry, looked up): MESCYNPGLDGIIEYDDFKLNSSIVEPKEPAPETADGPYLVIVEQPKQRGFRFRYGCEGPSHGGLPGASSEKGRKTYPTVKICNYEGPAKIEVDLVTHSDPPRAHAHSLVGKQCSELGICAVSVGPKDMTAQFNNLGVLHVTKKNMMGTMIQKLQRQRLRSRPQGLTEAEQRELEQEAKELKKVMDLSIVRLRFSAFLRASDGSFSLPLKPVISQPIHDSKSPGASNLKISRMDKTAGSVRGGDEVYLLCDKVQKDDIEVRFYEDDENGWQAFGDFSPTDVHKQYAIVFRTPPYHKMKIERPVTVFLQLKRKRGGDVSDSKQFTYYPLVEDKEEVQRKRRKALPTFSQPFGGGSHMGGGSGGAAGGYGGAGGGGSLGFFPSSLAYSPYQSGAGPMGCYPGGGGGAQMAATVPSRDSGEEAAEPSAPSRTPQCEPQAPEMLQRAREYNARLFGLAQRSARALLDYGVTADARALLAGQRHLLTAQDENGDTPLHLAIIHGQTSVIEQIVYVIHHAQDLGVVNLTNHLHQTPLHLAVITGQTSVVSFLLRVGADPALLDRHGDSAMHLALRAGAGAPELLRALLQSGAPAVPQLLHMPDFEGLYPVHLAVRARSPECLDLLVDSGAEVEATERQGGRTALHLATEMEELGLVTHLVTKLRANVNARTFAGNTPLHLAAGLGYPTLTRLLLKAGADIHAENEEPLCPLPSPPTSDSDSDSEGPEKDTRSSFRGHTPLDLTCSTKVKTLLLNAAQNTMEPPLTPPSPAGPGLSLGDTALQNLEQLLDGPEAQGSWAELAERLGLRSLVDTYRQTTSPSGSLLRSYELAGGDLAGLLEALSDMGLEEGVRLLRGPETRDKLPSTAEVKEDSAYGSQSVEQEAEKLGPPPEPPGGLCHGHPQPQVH
Nuclear factor NF-kappa-B complex (Homo sapiens), sequence (Q04206 whole entry, looked up): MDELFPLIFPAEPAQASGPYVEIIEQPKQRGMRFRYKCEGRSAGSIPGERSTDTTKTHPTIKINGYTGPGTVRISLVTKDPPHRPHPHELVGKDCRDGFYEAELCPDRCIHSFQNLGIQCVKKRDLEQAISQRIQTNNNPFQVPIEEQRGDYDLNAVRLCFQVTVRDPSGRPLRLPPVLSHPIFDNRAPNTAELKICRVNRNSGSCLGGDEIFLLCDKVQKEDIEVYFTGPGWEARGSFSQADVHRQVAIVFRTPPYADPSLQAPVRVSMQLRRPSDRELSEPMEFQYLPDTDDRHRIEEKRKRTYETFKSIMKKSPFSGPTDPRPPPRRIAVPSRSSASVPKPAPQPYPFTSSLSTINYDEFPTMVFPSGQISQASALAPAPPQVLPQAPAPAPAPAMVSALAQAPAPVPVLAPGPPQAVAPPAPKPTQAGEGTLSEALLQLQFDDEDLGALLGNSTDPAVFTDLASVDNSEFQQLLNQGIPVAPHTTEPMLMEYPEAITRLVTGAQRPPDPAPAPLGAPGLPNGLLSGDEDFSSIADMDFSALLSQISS
Cytochrome P450 2C9, sequence (P11712 whole entry): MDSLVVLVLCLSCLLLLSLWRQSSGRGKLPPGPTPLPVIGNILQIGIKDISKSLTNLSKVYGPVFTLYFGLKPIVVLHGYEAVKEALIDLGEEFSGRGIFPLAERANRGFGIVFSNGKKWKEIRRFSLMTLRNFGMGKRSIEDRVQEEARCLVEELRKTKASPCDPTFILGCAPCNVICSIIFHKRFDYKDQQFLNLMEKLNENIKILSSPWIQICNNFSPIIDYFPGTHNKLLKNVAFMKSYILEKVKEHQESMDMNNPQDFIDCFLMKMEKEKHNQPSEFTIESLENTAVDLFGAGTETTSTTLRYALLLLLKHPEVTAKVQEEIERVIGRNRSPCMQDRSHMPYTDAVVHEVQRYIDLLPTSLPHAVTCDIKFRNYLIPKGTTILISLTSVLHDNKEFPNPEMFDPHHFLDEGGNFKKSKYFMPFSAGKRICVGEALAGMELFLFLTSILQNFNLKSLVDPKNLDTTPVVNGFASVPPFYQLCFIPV
Voltage-gated inwardly rectifying potassium channel KCNH2, sequence (Q12809 whole entry): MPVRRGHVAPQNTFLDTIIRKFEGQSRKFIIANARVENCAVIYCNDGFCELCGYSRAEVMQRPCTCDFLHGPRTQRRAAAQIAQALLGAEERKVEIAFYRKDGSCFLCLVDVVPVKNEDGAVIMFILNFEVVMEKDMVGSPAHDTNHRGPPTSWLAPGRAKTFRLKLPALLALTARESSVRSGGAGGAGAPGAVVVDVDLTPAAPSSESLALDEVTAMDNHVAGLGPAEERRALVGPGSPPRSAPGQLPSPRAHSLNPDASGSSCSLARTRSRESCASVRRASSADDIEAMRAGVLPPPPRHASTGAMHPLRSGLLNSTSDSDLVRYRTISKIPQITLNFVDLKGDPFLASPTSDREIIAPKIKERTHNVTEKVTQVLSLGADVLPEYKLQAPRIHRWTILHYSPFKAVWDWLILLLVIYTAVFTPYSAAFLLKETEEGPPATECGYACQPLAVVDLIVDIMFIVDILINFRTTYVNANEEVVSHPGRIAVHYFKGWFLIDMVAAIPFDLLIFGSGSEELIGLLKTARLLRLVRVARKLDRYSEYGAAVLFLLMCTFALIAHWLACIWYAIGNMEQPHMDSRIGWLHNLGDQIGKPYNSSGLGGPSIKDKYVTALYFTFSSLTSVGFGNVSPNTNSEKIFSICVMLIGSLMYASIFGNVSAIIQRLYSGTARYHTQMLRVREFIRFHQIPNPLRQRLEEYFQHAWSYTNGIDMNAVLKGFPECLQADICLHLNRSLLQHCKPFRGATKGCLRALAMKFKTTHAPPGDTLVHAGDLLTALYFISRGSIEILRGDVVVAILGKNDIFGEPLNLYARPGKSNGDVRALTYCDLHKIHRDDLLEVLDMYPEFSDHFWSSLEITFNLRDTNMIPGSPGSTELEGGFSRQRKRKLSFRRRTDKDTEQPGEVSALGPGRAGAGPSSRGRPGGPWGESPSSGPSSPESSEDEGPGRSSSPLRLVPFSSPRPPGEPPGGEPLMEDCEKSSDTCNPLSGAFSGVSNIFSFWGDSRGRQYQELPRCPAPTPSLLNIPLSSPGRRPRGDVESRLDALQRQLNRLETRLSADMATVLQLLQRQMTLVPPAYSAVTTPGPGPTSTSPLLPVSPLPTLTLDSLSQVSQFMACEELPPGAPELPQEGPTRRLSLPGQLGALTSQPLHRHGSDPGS

- Activity [2]: Dde
- Activity [3]: Active
- Activity [4]: Active
- Activity [6]: Active
- Activity [8]: Active
- IC50 (Cytochrome P450 2C9): > 100 µM
- AUC(0-t) [11]: 4200 ng·h/mL
- Activity [13]: Dde
- Vd [14]: 17.7 L/kg
- RLU [16]: 102
- Activity [18]: Active
- IC50 [19]: 0.0623 nM
- remaining at 4 h, 5 µM [20]: > 99%
SMILES: CCn1nc(C)cc1C(=O)Nc1nc2cc(C(N)=O)cc(OC)c2n1C/C=C/Cn1c(NC(=O)c2cc(C)nn2CC)nc2cc(C(N)=O)cc(OCCCNC(=O)OC(C)(C)C)c21
- IC50 [1]: > 50 µM
- inhibition in vivo at 1.5 mg/kg (CT26): 57%
- Activity (THP-1 [5]): Active
- Activity (THP-1 [7]): Active
- Activity (THP-1 [9]): Active
- Activity (Mus musculus [10]): Active
- Activity (Mus musculus [12]): Active
- Activity (THP-1 [15]): Active
- Activity (THP-1 [17]): Active
